Source: PMC5150241, “Antimicrobial mechanism of theaflavins: They target 1-deoxy-D-xylulose 5-phosphate reductoisomerase, the key enzyme of the MEP terpenoid biosynthetic pathway” (Scientific Reports, 2016)
Read-outs that look alike come from different tables or passages of the source.

How the values were obtained:
[1] = Particle size analysis by dynamic light scattering (DLS); assay type: physicochemical; details: 50 mM Tris-HCl pH 7.4, 2 mM VC, 2% DMSO; for DLS Count Rate, with 4 μg/mL DXR / DLS Count Rate, without DXR: conc: TF 500, TF3G 100, TF3′G 100, TF3,3′G 70, baicalein 200 μM
Experimental: DLS is a widely utilized technique in materials science to measure particle sizes in solutions[20][21]. […] Baicalein was referenced as a positive control owing to the same reason as mentioned above. The particle size evaluation was performed by a DLS analyzer and the results display that except for baicalein, the theaflavins produce no detectable particles.
The particle size of the theaflavin compounds and baicalein in Tris-HCl buffer (50 mM, pH 7.4) containing 2 mM VC and 2.0% DMSO (V/V) was measured in the absence and presence of DXR (final concentration: 4 μg/mL) on a DLS analyzer (NICOMP-380, Particle Sizing Systems, Inc., Santa Barbara, Calif., USA). The detector time was set to 10 min. […] A solution of 2.0% aqueous DMSO was used as a reference.

[2] = biological target: T1, E. coli DXR (Escherichia coli, UniProt P45568); assay: DXR inhibition assay, pre-column derivatization HPLC method; assay type: biochemical; details: for Inhibition (%) Triton, lower concentration / Inhibition (%) Triton, higher concentration: 0.01% Triton X-100; for Inhibition (%) Triton, lower concentration / Inhibition (%) No Triton, lower concentration: conc: TF 150, TF3G 30, TF3′G 20, TF3,3′G 15, baicalein 50 μM; for Inhibition (%) Triton, higher concentration / Inhibition (%) No Triton, higher concentration: conc: TF 250, TF3G 50, TF3′G 40, TF3,3′G 30, baicalein 100 μM; for IC50: 2 mM VC, 0.5 mM NADPH, 1 mM DXP, 37 °C, 30 min, read-out: IC50 against DXR; for Inhibition (%) No Triton, lower concentration / Inhibition (%) No Triton, higher concentration: no Triton X-100
T1 construct: made in house
T1 sequence (P45568 whole entry): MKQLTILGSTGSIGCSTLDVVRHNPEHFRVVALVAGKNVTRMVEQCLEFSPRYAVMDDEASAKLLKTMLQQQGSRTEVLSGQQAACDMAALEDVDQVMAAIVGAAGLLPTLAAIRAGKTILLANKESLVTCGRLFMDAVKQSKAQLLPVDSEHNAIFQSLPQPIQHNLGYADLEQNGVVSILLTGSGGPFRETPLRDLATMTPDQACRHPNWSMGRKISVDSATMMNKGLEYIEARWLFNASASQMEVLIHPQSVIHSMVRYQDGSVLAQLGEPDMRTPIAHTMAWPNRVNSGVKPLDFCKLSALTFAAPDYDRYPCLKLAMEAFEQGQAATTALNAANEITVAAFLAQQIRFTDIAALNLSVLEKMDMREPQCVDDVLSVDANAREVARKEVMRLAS
Experimental: Then, we evaluated the DXR inhibitory activity of all four theaflavins at a final concentration of approximately 150 μM, employing 2% DMSO as a co-solvent and VC as a protective agent. […] Encouraged by these experiments, we further determined the DXR inhibitory effects of the theaflavins at different concentrations.
We therefore determined the DXR inhibitory activity of the theaflavins using 0.01% Triton X-100 as a surfactant to verify whether the theaflavins were aggregating inhibitors of DXR. Exactly the same procedure as described in the experimental part was followed to carry out the measurements. […] Then, we set two distinct concentrations for each of the theaflavins to evaluate its inhibition against DXR, one was close to its IC50 value and the other was about twice of it.
The inhibitory activity of the theaflavins and baicalein against E. coli DXR was determined using the pre-column derivatization HPLC method published by this group with minor modifications[29]. The assay mixture consists of 50 mM Tris-HCl (pH 7.4), 5 mM MgCl2, 2 mM VC, 0.5 mM NADPH, 2% (W/V) DMSO or 0.01% Triton X-100, and 4 μg/mL DXR in a final volume of 100 μL. The theaflavin compounds or baicalein were added to the mixtures separately before the addition of DXP (final conc. 1 mM) to start the reaction. […] The reaction mixture was incubated at 37 °C for 30 min before the DXR was inactivated by boiling for 3 minutes. Subsequently, 10 μL AP buffer (1 M Tris-HCl, 1 M NaCl2 50 mM MgCl2, pH 9.5) and 2 U AP were added, and the mixture was incubated at 37 °C for 120 min. 10 μL DNPH (120 mM in 30% perchloric acid, V/V) and 280 μL methanol were supplemented. After incubated at 37 °C for another 45 min, the mixture was centrifuged at 6000 rpm for 3 min and the supernatant was used for HPLC analysis on the Agilent 1200 HPLC system. HPLC conditions: Column, Shim-pack VP-ODS column (250 × 4.6 mm, 4.6 μm). Injection volume: 60 μL. Gradient: 0 min, 40% acetonitrile; 17 min, 80% acetonitrile; 18–20 min, 40% acetonitrile. Detection wavelength: 360 nm. Flow rate: 0.7 mL/min. Column temperature: 30 °C.

[3] = set-up: method as in earlier work; details: cited from earlier work
[4] = test system: Plasmodium falciparum; details: malaria caused by Plasmodium falciparum; cited from earlier work
[5] = Stability of the theaflavins under the DXR assay conditions (HPLC); assay type: physicochemical; details: 100 μM before incubation, 50 mM Tris-HCl pH 7.4, 37 °C, 35 min; for Concentration after incubation in the absence of 2 mM VC: no VC
Experimental: The theaflavins are unstable compounds, especially under a basic condition. Because the DXR inhibition assay needs to be carried out in 50 mM Tris-HCl buffer at pH 7.4 and incubated at 37 °C for 30 min, we have to test whether the theaflavins can survive the assay condition, although it is almost neutral. The compounds were actually incubated at 37 °C for 35 min, 5 min longer than that of the real DXR assay. The results, as depicted in Table 1, indicate that almost half of the theaflavins decomposed after incubation. That is to say that these compounds are unstable even under the weak basic condition. […] Thus VC (2 mM) was used to protect the theaflavins in the following assays.
Stability of the theaflavins in Tris-HCl buffer was evaluated using an Agilent 1200 HPLC equipped with a DAD detector. The theaflavins were separately diluted into 50 mM Tris-HCl buffer (pH 7.4) containing 5 mM MgCl2 and 2% (W/V) DMSO to a final concentration of 100 μM in the absence and presence of 2 mM VC. The mixtures were subsequently incubated at 37 °C for 35 min before they were centrifuged at 6000 rpm for 3 min and analyzed. HPLC conditions: Column, Shim-pack VP-ODS column (250 × 4.6 mm, 4.6 μm). Detection wavelength: 280 nm. Injection volume: 20 μL. The mobile phase consists of 60% solvent A [2% acetic acid in water (v/v)] and 40% solvent B (acetonitrile). Flow rate: 0.7 mL/min. Column temperature: 25 °C. […]
1. Stability of the theaflavins under the DXR assay conditions
In order to evaluate the stability of the theaflavins under the DXR assay conditions, each compound was diluted into 50 mM Tris-HCl buffer (pH 7.4) and incubated at 37 °C for 35 min in the absence and presence of 2 mM VC before they were determined by HPLC. The HPLC profiles were listed in Fig. S1. From the figure we are able to see that in the presence of 2 mM VC, the four theaflavin compounds are stable because the peak area of each compound remains almost unchanged after incubation (B). But they are unstable in the absence of VC because the peak areas of all four […]
(1 picture or pasted object on this page, not shown here)
Figure S1. The stabilitiy of the theaflavin compounds under DXR assay conditions. A. Mixtures of VC and individual theaflavins in 50 mM Tris-HCl buffer (pH 7.4) before incubation; B. Mixtures of VC and individual theaflavins in same buffer after incubated at 37 °C for 35 min; C. Individual theaflavins in same buffer after incubated at 37 °C for 35 min. In A and B. Line 1, TF (100 μM) plus VC (2 mM); Line 2, TF3G (100μM) plus VC (2 mM); Line 3, TF3’G (100μM) plus VC (2 mM); Line 4, TF3,3’G (100μM) plus VC (2 mM). In C. Line 1, TF (100 μM); Line 2, TF3G (100μM); Line 3, TF3’G (100μM); Line 4, TF3,3’G (100μM). HPLC conditions:
Column, Shim-pack VP-ODS column (250 × 4.6 mm, 4.6μm). Detection wavelength: 280 nm. The mobile phase consisted of 60% solvent A [2% acetic acid in water (v/v)] and 40% solvent B (acetonitrile). Flow rate:
0.7 mL/min. Column temperature: 25 °C. […]

[6] = biological target: T1, E. coli DXR; assay: Inhibition kinetics against DXR (Lineweaver-Burk plots); assay type: biochemical; details: for Ki: 2 μg/mL DXR; for Kinetics (DXP): inhibition mode with respect to DXP; for Kinetics (NADPH): inhibition mode with respect to NADPH
Experimental: Lineweaver-Burk (LB) graphical charts were obtained by plotting the reciprocal of the reaction velocity against the reciprocal of the concentration of DXP/NADPH.
For A, the mixtures contained 1 mM DXP and NADPH (final conc. 0.05 to 0.275 mM); For B, the mixtures contained 0.5 mM NADPH and DXP (final conc. 0.075 to 0.3375 mM). The incubation was performed for 10 min at 37 °C before the reaction mixtures were hydrolyzed with AP, derivatized with DNPH, and analyzed using the HPLC method.
Lineweaver–Burk plots of DXR with respect to NADPH in the absence and presence of TF (A-1),
Assay mixtures comprised 50 mM tris-HCl (pH 7.4), 5 mM
MgCl2, 2 mM VC, the theaflavins (TF: 0, 2, 10, 20 μM; the other three compounds: 0, 1, 4, or 8 μM), 1 mM DXP and 2 μg/mL DXR in a final volume of 100 μL. Then, NADPH (final conc. 0.05 to 0.275 mM) was added, and incubation was performed for 10 min at 37 °C before the reaction mixtures were hydrolyzed with AP, derivatized with DNPH, and analyzed using the HPLC method. (A-1) DXR inhibition kinetics of TF; (A-2) DXR inhibition kinetics of TF3G; (A-3) DXR inhibition kinetics of TF3’G; (A-4) DXR inhibition kinetics of
Lineweaver–Burk plots of DXR with respect to DXP in the absence and presence of TF (B-1),
MgCl2, 2 mM VC, the theaflavins (TF: 0, 5, 10, 20 μM; the other three compounds: 0, 1, 4, or 8 μM), 0.5 mM NADPH, and 2 μg/mL. DXR in a final volume of 100 μL. Then, DXP (final conc. 0.075 to 0.3375 mM) was added, and incubation proceeded for 10 min at 37 °C before the reaction mixtures were hydrolyzed with AP, derivatized with DNPH, and analyzed using the HPLC method. (B-1) DXR inhibition kinetics of TF; (B-2) DXR inhibition kinetics of TF3G; (B-3) DXR inhibition kinetics of TF3’G; (B-4) DXR inhibition kinetics of

[7] = biological target: T2, Calf intestine AP (Bos taurus, UniProt P19111); assay: Alkaline phosphatase (AP) inhibition assay, HPLC method; assay type: biochemical; details: 2 mM
T2 construct: purchased Takara (Dalian, China)
T2 sequence (P19111 20-533): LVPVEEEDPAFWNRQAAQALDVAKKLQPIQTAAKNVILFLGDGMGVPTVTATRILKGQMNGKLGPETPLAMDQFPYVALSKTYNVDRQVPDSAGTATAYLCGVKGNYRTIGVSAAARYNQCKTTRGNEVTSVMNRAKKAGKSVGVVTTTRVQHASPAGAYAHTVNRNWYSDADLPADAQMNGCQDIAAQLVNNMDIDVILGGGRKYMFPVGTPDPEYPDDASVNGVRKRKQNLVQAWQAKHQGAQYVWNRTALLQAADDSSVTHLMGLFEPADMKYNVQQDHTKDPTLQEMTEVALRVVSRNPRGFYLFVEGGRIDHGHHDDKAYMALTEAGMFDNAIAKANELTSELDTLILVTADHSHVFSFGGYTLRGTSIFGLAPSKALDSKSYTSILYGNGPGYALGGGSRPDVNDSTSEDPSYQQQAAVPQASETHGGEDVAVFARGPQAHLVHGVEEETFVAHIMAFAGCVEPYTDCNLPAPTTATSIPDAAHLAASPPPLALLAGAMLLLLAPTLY
Experimental: The other factor that could influence the determination of inhibitory activity of the theaflavins against DXR would be the AP because we must use it to dephosphorylate DXP before DNPH derivatization. We thus measured whether VC and the theaflavins might display any inhibition against this enzyme. We find that VC has no effect on the activity of AP at 2 mM and the four theaflavins also have no inhibition against AP at all (Fig. 4), even at final concentrations as high as 500 μM.
Figure 4 Determination of inhibition of VC and the theaflavins against AP. The reaction mixtures comprise 10 μL AP buffer and 2 U AP in a final volume of 100 μL, DXP was added (final conc. 1 mM) to start the reaction. The reaction mixtures were incubated at 37 °C for 120 min and subsequently derivatized with DNPH and analyzed with the HPLC method. For VC assay, 2 mM VC was added before the addition of DXP. For assays of the theaflavins, the compounds were added separately before the addition of DXP (two concentrations, 20 and 500 μM for each compound were applied).
The HPLC method described above was also used to determine the inhibitory activity of the theaflavins against AP. The reaction mixture comprises 2 mM VC, 10 μL AP buffer and 2 U AP in a final volume of 100 μL. […] Then, the reaction mixture was derivatized with DNPH and analyzed with the HPLC method.

[8] = DXP as varied substrate, 0.5 mM NADPH, read-out: Ki (DXP)
[9] = NADPH as varied substrate, 1 mM DXP, read-out: Ki (NADPH)

Molecule | DLS Count Rate, with 4 μg/mL DXR ([1]; 4 μg/mL DXR) [KHz] | DLS Count Rate, without DXR [1] [KHz] | Concentration after incubation in the presence of 2 mM VC [5] [µM] | Concentration after incubation in the absence of 2 mM VC [5] [µM] | Ki [6, 8] [µM] | Ki [6, 9] [µM] | Kinetics (DXP) [6] | Kinetics (NADPH) [6] | Inhibition (%) Triton, lower concentration [2] [%] | Inhibition (%) Triton, higher concentration [2] [%] | IC50 ([2]; 2% DMSO) [µM] | Inhibition (%) No Triton, lower concentration [2] [%] | Inhibition (%) No Triton, higher concentration [2] [%] | also measured
O=c1cc(-c2ccccc2)oc2cc(O)c(O)c(O)c12 [Baicalein, baicalein, reference compound] | 296 ± 19.7 | 2.6 ± 0.5 |  |  |  |  |  |  |  |  |  |  |  | DLS Size, with 4 μg/mL DXR ([1]; 4 μg/mL DXR, baicalein 200 μM): 429.2 ± 84.7 nm; inhibition at 100 µM ([2]; read-out: Inhibition (%) No Triton, higher concentration): 63.5 ± 2.9%; inhibition at 50 µM ([2]; read-out: Inhibition (%) No Triton, lower concentration): 37.6 ± 4.7%; inhibition at 100 µM ([2]; read-out: Inhibition (%) Triton, higher concentration): 6.5 ± 4.6%; inhibition at 50 µM ([2]; read-out: Inhibition (%) Triton, lower concentration): 5.1 ± 3.9%
O=CN(O)CCCP(=O)(O)O [Fosmidomycin, fosmidomycin] |  |  |  |  |  |  |  |  |  |  |  |  |  | Bioavailability [3]: poor; Plasma half-life [3]: ~ 1 h; Inhibition of DXR activity (positive control) ([2]; 1.0 μM): complete inhibition; Efficacy in treating malaria (clinical data) [4]: somewhat effective
O=C(O[C@@H]1Cc2c(O)cc(O)cc2O[C@@H]1c1cc(O)c(=O)c2c(O)c(O)cc([C@H]3Oc4cc(O)cc(O)c4C[C@H]3OC(=O)c3cc(O)c(O)c(O)c3)c2c1)c1cc(O)c(O)c(O)c1 [TF3,3′G, theaflavin-3,3′-digallate] | 4.8 ± 0.4 | 2.2 ± 0.4 | 96.72 ± 2.78 | 55.26 ± 4.32 |  |  |  |  |  |  |  |  |  | 
O=C(O[C@@H]1Cc2c(O)cc(O)cc2O[C@@H]1c1cc(O)c(O)c2c(=O)c(O)cc([C@H]3Oc4cc(O)cc(O)c4C[C@H]3O)cc12)c1cc(O)c(O)c(O)c1 [TF3G] | 4.6 ± 0.5 | 2.6 ± 0.5 | 98.15 ± 2.86 | 60.88 ± 2.77 | 30.2 ± 2.6 | 24.7 ± 3.2 | Noncompetitive | Uncompetitive | 52.7 ± 2.4 | 67.9 ± 3.4 | 29.2 ± 2.6 | 52.6 ± 3.2 | 69.6 ± 2.7 | 
O=C(O[C@@H]1Cc2c(O)cc(O)cc2O[C@@H]1c1cc(O)c(=O)c2c(O)c(O)cc([C@H]3Oc4cc(O)cc(O)c4C[C@H]3O)c2c1)c1cc(O)c(O)c(O)c1 [TF3′G, theaflavin-3′-gallate] | 5.2 ± 0.4 | 1.4 ± 0.5 | 98.08 ± 3.02 | 61.17 ± 4.29 | 22.2 ± 3.1 | 22.4 ± 2.1 | Noncompetitive | Uncompetitive | 42.5 ± 3.3 | 70.7 ± 3.3 | 23.7 ± 2.9 | 41.3 ± 2.9 | 70.3 ± 3.4 | 
O=c1c(O)cc([C@H]2Oc3cc(O)cc(O)c3C[C@H]2O)cc2c([C@H]3Oc4cc(O)cc(O)c4C[C@H]3O)cc(O)c(O)c12 [TF, theaflavin] | 5.8 ± 0.4 | 2.2 ± 0.4 | 98.97 ± 3.27 | 63.01 ± 3.73 | 107 ± 3.9 | 83.1 ± 4.3 | Noncompetitive | Uncompetitive | 43.9 ± 3.6 | 62.2 ± 2.9 | 162 ± 3.6 | 45.3 ± 3.4 | 63.1 ± 2.4 | Inhibition against DXR at a single concentration ([2]; approximately 150 μM, 2% DMSO, VC): approximately 40%
O=C1O[C@H]([C@@H](O)CO)C(O)=C1O [VC, ascorbic acid] |  |  |  |  |  |  |  |  |  |  |  |  |  | Effect on the activity of AP [7]: no effect; Effect on the activity of DXR ([2]; 2 mM): no effect
Triton X-100 |  |  |  |  |  |  |  |  |  |  |  |  |  | Effect on the activity of DXR ([2]; 0.1%): no effect
